{"source": "patent US4229438A", "about": "“Nonapeptides” (Takeda Chemical Industries, Ltd., priority 1978, dated 1980)", "note": "Residues, ends and D or L forms follow the SMILES beside them.", "data": [{"test_system": "spleen cells of C3H/He mouse (23-26% albumin layer interface fraction)", "assay": "Determination of theta antigen induction activity (procedure analogous to Komuro et al)", "type": "cell-based", "settings": "C3H/He mouse spleen cell fraction in RPMI-1640, incubated with peptide at 37° C. for 2 hours; lysis with anti(theta) serum and guinea-pig complement", "experimental": "The theta antigen induction activity of the nonapeptide (I) is assayed by a procedure analogous to the procedure described in the article of Komuro et al [The Lancet, i, 740-743 (1973)]. The spleen is enucleated from a C3H/He mouse, 2-3 months old, and minced in a tissue culture fluid (RPMI-1640). The resulting spleen cell suspension is fractionated by discontinuous density gradient centrifugation using 10 to 35% bovine serum albumin. The cells migrating to the 23-26% albumin layer interface are collected and resuspended in RPMI-1640. To this cell suspension is added the peptide, the activity of which is to be determined, at a varying concentration and the mixture is incubated at 37° C. for 2 hours. If the peptide added be active, fresh theta antigen will appear on the cell surface. Therefore, the count of such cells is taken by lysing with an outbred mouse anti(theta) serum and guinea-pig complement. The theta-antigen induction activity is computed by means of the following equation. Theta-antigen induction activity(%)=(A-B/A)×100 where A is the count of theta antigen-negative cells in the absence of the test peptide and B is the count of theta antigen-negative cells when the test peptide has been added.", "units": {"The concentration required for showing at least 10% theta antigen induction activity": "ng/mL"}, "values": [{"smiles": "C[C@@H](NC(=O)[C@@H]1CCC(=O)N1)C(=O)N[C@@H](CCCCN)C(=O)N[C@@H](CO)C(=O)N[C@@H](CCC(N)=O)C(=O)NCC(=O)NCC(=O)N[C@@H](CO)C(=O)N[C@@H](CC(N)=O)C(=O)O", "note": "[Example 1, pGlu-(D)-Ala-Lys-Ser-Gln-Gly-Gly-Ser-Asn-OH] (HELM PEPTIDE1{[Glp].[dA].K.S.Q.G.G.S.N}$$$$V2.0)", "The concentration required for showing at least 10% theta antigen induction activity": "1 to 10"}, {"smiles": "C[C@H](NC(=O)[C@@H]1CCC(=O)N1)C(=O)N[C@@H](CCCCN)C(=O)N[C@@H](CO)C(=O)N[C@@H](CCC(N)=O)C(=O)NCC(=O)N[C@H](C)C(=O)N[C@@H](CO)C(=O)N[C@@H](CC(N)=O)C(=O)O", "note": "[Example 3, pGlu-Ala-Lys-Ser-Gln-Gly-(D)-Ala-Ser-Asn-OH] (HELM PEPTIDE1{[Glp].A.K.S.Q.G.[dA].S.N}$$$$V2.0)", "The concentration required for showing at least 10% theta antigen induction activity": "1 to 10"}, {"smiles": "C[C@H](NC(=O)[C@@H]1CCC(=O)N1)C(=O)N[C@@H](CCCCN)C(=O)N[C@@H](CO)C(=O)N[C@@H](CCC(N)=O)C(=O)N[C@H](C)C(=O)NCC(=O)N[C@@H](CO)C(=O)N[C@@H](CC(N)=O)C(=O)O", "note": "[Example 4, pGlu-Ala-Lys-Ser-Gln-(D)-Ala-Gly-Ser-Asn-OH] (HELM PEPTIDE1{[Glp].A.K.S.Q.[dA].G.S.N}$$$$V2.0)", "The concentration required for showing at least 10% theta antigen induction activity": "0.1 to 1"}]}]}
